The values that follow come from patent US20250034130A1, “Crystal Form of Tolebrutinib, Preparation Method Therefor and Use Thereof” (Principia Biopharma Inc., priority 2021, published 2025).

“Also recorded” adds a separate entry of the source.

Holding throughout (assay type): physicochemical
The nature of series [1]: Physical and chemical stability on storage in opened packages (purity by UPLC, solid form by XRPD). On the procedure:
X-ray powder diffraction patterns in the present disclosure were acquired by a Bruker X-ray powder diffractometer. The parameters of the X-ray powder diffraction method of the present disclosure are as follows: • X-Ray: Cu, Kα • Kα1 (Å): 1.54060; Kα2 (Å): 1.54439 • Kα2/Kα1 intensity ratio: 0.50
(§1) The related substance in the present disclosure was detected by UPLC and the parameters are shown below.
Said “room temperature” is not a specific temperature, but a temperature range of 10-30° C. Said “open packaged” is putting the sample into a glass vial, covering the vial with aluminum foil, and punching 5-10 holes on the foil.
Form CSII of the present disclosure and the prior art amorphous form were weighed and stored under 25° C./60% RH, 40° C./75% RH and 60° C./75% RH conditions, in opened packages, respectively. The purity and solid form were determined by UPLC and XRPD. The results are listed in Table 3, and the overlaid XRPD patterns of Form CSII before and after storage for stability evaluation are shown in FIG. 4.
Form CSIII of the present disclosure and the prior art amorphous form were weighed and stored under 25° C./60% RH, 40° C./75% RH and 60° C./75% RH conditions, in opened packages, respectively. The purity and solid form were determined by UPLC and XRPD. The results are listed in Table 10, and the overlaid XRPD patterns of Form CSIII before and after storage for stability evaluation are shown in FIG. 9.
Form CSIV of the present disclosure and the prior art amorphous form were weighed and stored under 25° C./60% RH and 40° C./75% RH conditions, in opened packages, respectively. The purity and solid form were determined by UPLC and XRPD. The results are listed in Table 16, and the overlaid XRPD patterns of Form CSIV before and after storage for stability evaluation are shown in FIG. 15.

Series [2] in a line: Stability at high temperature (80° C., 2 days, purity by UPLC). Particulars: 2 days. The protocol:
as §1
Certain amounts of Form CSII of the present disclosure and the prior art amorphous form were weighted and stored at 80° C. for 2 days, and the purities of the solids before and after storage were determined by UPLC, the results are as shown in Table 4.
Certain amounts of Form CSIII of the present disclosure and the prior art amorphous form were weighted and stored at 80° C. for 2 days, and the purities of the solids before and after storage were determined by UPLC, the results are as shown in Table 11.
Certain amounts of Form CSIV of the present disclosure and the prior art amorphous form were stored at 80° C. for 2 days, and the purities of the solids before and after storage were determined by UPLC, the results are as shown in Table 17.

Series [3] can be described thus: Light stability (Chinese Pharmacopoeia method, purity by UPLC). Conditions: light not less than 1.2×10^6 lux-hr, near-UV not less than 200 W-hr/m^2.
Source text: as §1
Certain amounts of Form CSII of the present disclosure and the prior art amorphous form were weighted and stored for about 1 week, in accordance with the method of the Chinese Pharmacopoeia, under the condition that the total illumination of the light source was not less than […] and the energy of the near-ultraviolet lamp was not less than 200 W-hr/m^2, the purities of the solids before and after storage were measured by UPLC and the results are shown in Table 5.
Certain amounts of Form CSIII of the present disclosure and the prior art amorphous form were weighted and stored for about 1 week, in accordance with the method of the Chinese Pharmacopoeia, under the condition that the total illumination of the light source was not less than 1.2×10^6 lux-hr and the energy of the near-ultraviolet lamp was not less than 200 W-hr/m^2, the purities of the solids before and after storage were measured by UPLC and the results are shown in Table 12.
Certain amounts of Form CSIV of the present disclosure and the prior art amorphous form were weighted and stored for about 1 week, in accordance with the method of the Chinese Pharmacopoeia, under the condition that the total illumination of the light source was not less than 1.2×10^6 lux-hr and the energy of the near-ultraviolet lamp was not less than 200 W-hr/m^2, the purities of the solids before and after storage were measured by UPLC and the results are shown in Table 18.

The nature of series [4]: Hygroscopicity by DVS (0% RH-95% RH-0% RH at 25° C.). On the procedure: DVS was measured via an SMS (Surface Measurement Systems Ltd.) intrinsic DVS instrument.
Parameters for DVS method are as follows: • Temperature: 25° C. • Gas and flow rate: nitrogen, 200 mL/min • RH range: 0% RH to 95% RH • ^1H NMR were collected from a Bruker Avance II DMX 400M HZ NMR spectrometer. 1-5 mg of sample was weighed and dissolved in 0.5 mL of deuterated dimethyl sulfoxide to obtain a solution with a concentration of 2-10 mg/mL.
Certain amounts of Form CSII of the present disclosure and the prior art amorphous form were sampled for hygroscopicity tests using DVS instrument. The weight change at each relative humidity was recorded during the cycle of 0% RH-95% RH-0% RH at 25° C.
Description and definition of hygroscopicity (general notice 9103 drug hygroscopicity test guidelines in 2020 edition of Chinese Pharmacopoeia, experimental condition: 25±1° C., 80±2% RH):
Certain amounts of Form CSIII of the present disclosure and the prior art amorphous form were sampled for hygroscopicity tests using DVS instrument. The weight change at each relative humidity was recorded during the cycle of 0% RH-95% RH-0% RH at 25° C.
Certain amounts of Form CSIV of the present disclosure and the prior art amorphous form were sampled for hygroscopicity tests using DVS instrument. The weight change at each relative humidity was recorded during the cycle of 0% RH-95% RH-0% RH at 25° C.

Series [5] in a line: Grinding stability (manual grinding 5 minutes in a mortar, XRPD). Particulars: ground manually 5 minutes in a mortar. On the procedure:
Form CSII was grounded manually for 5 minutes in a mortar. XRPD was tested before and after the grinding.
Form CSIII was grounded manually for 5 minutes in a mortar. XRPD was tested before and after the grinding.
Form CSIV was grounded manually for 5 minutes in a mortar. XRPD was tested before and after the grinding.

Series [6] in a line: Stability of crystalline form in tablet formulation process (XRPD before and after). Conditions: tablets per Table 7 and Table 8, XRPD. The protocol:
According to the formulation and process in Table 7 and Table 8, the tablets were prepared with an appropriate amount of Form CSII of the present disclosure. XRPD was tested before and after formulation.
According to the formulation and process in Table 7 and Table 8, the tablets were prepared with an appropriate amount of Form CSIII of the present disclosure. XRPD was tested before and after formulation.
According to the formulation and process in Table 7 and Table 8, the tablets were prepared with an appropriate amount of Form CSIV of the present disclosure. XRPD was tested before and after formulation.

Where [7] appears, read: 25° C./60% RH, 2 months, open package.
[8] abbreviates: 40° C./75% RH, 2 months, open package.

In the case of `C=CC(=O)N1CCC[C@@H](n2c(=O)n(-c3ccc(Oc4ccccc4)cc3)c3c(N)nccc32)C1` [Form CSIV, (R)-1-(1-acryloylpiperidin-3-yl)-4-amino-3-(4-phenoxyphenyl)-1H-imidazo[4,5-c] pyridin-2(3H)-one], the “Chemical purity during storage” value in series [1] (25° C./60% RH) was “above 99.7%”. Further, the “Time for which the crystalline state doesn't change / form is stable” value in series [1] (25° C./60% RH) and in series [1] (40° C./75% RH) was “at least 2 months” throughout. In addition, the Purity in series [1] (setting [7]) is 99.74%; in series [1] (setting [8]) it was 99.75%; in series [1] (Initial), 99.74%. In addition, the Purity change is on record as 0.00% in series [1] (setting [7]), “+0.01%” in series [1] (setting [8]), “+0.03%” in series [2] (glass vial with cap) and “+0.06%” in series [3] (1 week). For the same compound, the Solid form entry in series [1] (setting [7]), in series [1] (setting [8]) and in series [1] (Initial) was “Form CSIV” throughout. Moreover, the “Chemical purity (in words)” value in series [2] and in series [3] (about 1 week) was “basically remained unchanged” throughout. The “Weight gain relative to that of the prior art” value in series [4] (80% RH) was 1/15. For the same compound, in series [4] (DVS, 25° C., 80% RH), the “Weight gain at 80% RH” value was determined as 0.24%. Further, in series [4] (XRPD before and after DVS), the “Crystalline state after the DVS test” value is given as “remained unchanged”. Further, the Hygroscopicity class result in series [4] (weight gain at 80% RH, 25° C.) is recorded as “slightly hygroscopic”. In series [5], the “Crystalline state after grinding” value is listed as “remains unchanged”. In series [6], the “Crystalline state after formulation process (mixed with excipients, tableted)” value is recorded as “remained unchanged; also recorded: did not change”.
